One data set addresses T1, vasopressin V2 receptor (Rattus norvegicus, UniProt Q00788).
T1 construct: from tissue; host or cells: whole animal (in vivo)
The data set can be described thus: in vivo assay described in PCT/GB2001/000023 (inhibition of urine output). As to conditions: at 1 hour, dosed at 1 mg/Kg. From the text: The ability of the crystalline form of the invention to agonise the vasopressin V2 receptor may be determined using the in vivo assay described in PCT/GB2001/000023.

Data set [1] is described as follows: Stability testing: storage for 6 months at 40° C. and 75% relative humidity (Karl Fischer, HPLC, appearance). The class given is physicochemical. The conditions noted are these: for sum of impurities (HPLC), initial / water / moisture content (Karl Fischer), initial: before storage. As for the experimental part: Karl Fischer moisture content determination was carried out using Metrohm 795 KFT volumetric Karl Fischer apparatus. Sample size was approximately 100 mg and the determination was carried out in duplicate.
HPLC data were collected using a Zorbax Extend C18, 2.1 mm×150 mm, 5 μm d.p. column. Flow rate was 0.3 mL/min. Injection volume was 10 μL, detector wavelength 220 nm and column temperature 40° C. Eluent A was 10 mM aqueous ammonium acetate, pH 5.0. Eluent B was 20:80 v/v 10 mM aqueous ammonium acetate: acetonitrile. The gradient programme is shown below: […]
Also, there is no significant degradation as measured by the sum of impurities which increases only from 0.9% to 1.0% (HPLC).

Data set [2] in a line: Gravimetric Vapour Sorption Analysis (GVA), hygroscopicity testing. The class given is physicochemical. The procedure: Gravimetric Vapour Sorption Analysis (GVA) was carried out with approximately 20 mg of sample placed into a suitable sample holder such as a wire-mesh vapour sorption balance pan. This was loaded into either an IGAsorp (Hiden Analytical Instruments) or a DVS Intrinsic (Surface Measurement Systems) vapour sorption balance held at 25+/−0.1° C. The sample was then dried by maintaining a 0% humidity environment until no further weight change was recorded (alternatively, the sorption/desorption cycle is initiated at typical ambient conditions of 40% relative humidity). Subsequently, the sample was then subjected to a ramping profile up to 90% relative humidity at 10% relative humidity increments, maintaining the sample at each step until equilibration had been attained (99.5% step completion). Upon reaching equilibration, the relative humidity within the apparatus was ramped to the next step and the equilibration procedure repeated. After completion of the sorption cycle, the sample was then dried using the same procedure. The weight change during the sorption/desorption cycles was then monitored, allowing for the hygroscopic nature of the sample to be determined.
The amorphous form is hygroscopic as indicated by Gravimetric Vapour Sorption Analysis (GVA).
In contrast, there was no significant water uptake observed between 40% RH and 90% RH (approximately 0.3% w/w) by the crystalline solid form (the water sorption/desorption isotherms are shown in FIGS. 9 and 10).

[3] abbreviates: 6 months at 40° C. and 75% relative humidity.

“Also recorded” adds a separate entry of the source. Like-named read-outs stand apart in the source and are kept apart here.

T1 sequence (Q00788 whole entry): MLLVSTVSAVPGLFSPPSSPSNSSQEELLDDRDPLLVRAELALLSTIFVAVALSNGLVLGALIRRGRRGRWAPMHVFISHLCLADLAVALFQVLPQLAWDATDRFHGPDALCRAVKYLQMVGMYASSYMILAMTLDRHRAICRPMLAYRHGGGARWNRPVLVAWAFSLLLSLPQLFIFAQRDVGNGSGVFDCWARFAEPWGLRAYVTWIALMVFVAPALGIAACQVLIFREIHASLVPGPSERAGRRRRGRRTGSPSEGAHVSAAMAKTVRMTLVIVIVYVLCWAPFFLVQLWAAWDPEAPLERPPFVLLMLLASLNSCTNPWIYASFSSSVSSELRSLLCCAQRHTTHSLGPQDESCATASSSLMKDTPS

Regarding `Cc1cc(C(=O)N2CCCCc3ccccc32)ccc1CNC(=O)N1CCC[C@H]1C(=O)N(C)C` [1-(2-methyl-4-(2,3,4,5-tetrahydro-1-benzazepin-1-ylcarbonyl)benzylcarbamoyl)-L-proline-N,N-dimethylamide], on vasopressin V2 receptor, the “inhibition of urine output” value was 82%.

In the case of `Cc1cc(C(=O)N2CCCCc3ccccc32)ccc1CNC(=O)N1CCC[C@H]1C(=O)N(C)C` [amorphous form, 1-(2-methyl-4-(2,3,4,5-tetrahydro-1-benzazepin-1-ylcarbonyl)benzylcarbamoyl)-L-proline-N,N-dimethylamide], in data set [1] (setting [3]), the appearance after storage result is “became glassy in appearance and became yellow in colour; also recorded: became glassy in appearance and yellow in colour”; the “sum of impurities (HPLC) after storage” value is 3.7%; the “water / moisture content (Karl Fischer) after storage” value is 5.7%. Further, in data set [1], the “sum of impurities (HPLC), initial” value came out at 1.5% and the “water / moisture content (Karl Fischer), initial” value is 1.3%. Besides, in data set [2], the “hygroscopicity (in words)” value is on record as “highly hygroscopic” and the “change in solid form over the entire water sorption range” value (“change in solid form” below) was “remained stable to recrystallisation”. For the same molecule, in data set [2] (listed as amorphous solid), the “hygroscopicity (in words)” value is “hygroscopic”.

In the case of `Cc1cc(C(=O)N2CCCCc3ccccc32)ccc1CNC(=O)N1CCC[C@H]1C(=O)N(C)C` [crystalline form, 1-(2-methyl-4-(2,3,4,5-tetrahydro-1-benzazepin-1-ylcarbonyl)benzylcarbamoyl)-L-proline-N,N-dimethylamide], in data set [1] (setting [3]), the appearance after storage result was “remains as a white powder”, the “stability (in words)” value is given as “more stable than the amorphous form”, the “sum of impurities (HPLC) after storage” value amounted to 1.0% and the “water / moisture content (Karl Fischer) after storage” value is on record as 3.8%. Further, the “sum of impurities (HPLC), initial” value in data set [1] is 0.9%. Also, the “water / moisture content (Karl Fischer), initial” value in data set [1] (listed as Form 1) is 3.8%. Also, in data set [2], the “hygroscopicity (in words)” value is “much less hygroscopic than the amorphous form” and the “change in solid form” value is “Neither is there any change in solid form”. Further, in data set [2] (25 °C, 40% RH to 90% RH), the “water uptake between 40% RH and 90% RH” value is “approximately 0.3 % w/w”. In addition, in data set [2] (listed as crystalline solid form), the “change in solid form” value is given as “no change in solid state form”.

The values are drawn from patent US9079881B2, “Polymorph of 1-(2-methyl-4-(2,3,4,5-tetrahydro-1-benzazepin-1-ylcarbonyl)benzylcarbamoyl)-L-proline-N,N-dimethylamide” (Vantia Limited, priority 2010, dated 2015).
